pIC50: −log10 of the molar value. Bounds are passed on as bounds.

This is an account of results in BindingDB's records for doi:10.1016/j.bmcl.2008.05.016 (Astrazeneca R&D Boston, 2008).

The assay is described as follows: Inhibition of Cdk1.

Take `CCN(CC)CCOc1ccc(-c2cc(C(=O)NC3CCNCC3)c(NC(N)=O)s2)cc1` [1-(5-(4-(2-(diethylamino)ethoxy)phenyl)-3-(piperidin-4-ylcarbamoyl)thiophen-2-yl)urea]: the negative logarithm of the IC50 (pIC50) (as a rule, −log10 of the IC50, conventionally taken in molar units) was less than 4.16.

`NC(=O)Nc1sc(-c2cccc(Cl)c2)cc1C(=O)N[C@H]1CCCNC1` [1-(3-((S)-piperidin-3-ylcarbamoyl)-5-(3-chlorophenyl)thiophen-2-yl)urea] had a negative logarithm of the IC50 (pIC50) of 5.06. `CCN(CC)CCOc1ccc(-c2cc(C(=O)NC3CCNC3)c(NC(N)=O)s2)cc1` (configuration not stated) [1-(5-(4-(2-(diethylamino)ethoxy)phenyl)-3-(pyrrolidin-3-ylcarbamoyl)thiophen-2-yl)urea] showed a negative-log IC50 (pIC50) of less than 4.00. The same measure for `NC(=O)Nc1sc(-c2cccc(F)c2)cc1C(=O)N[C@H]1CCCNC1` [1-(3-((S)-piperidin-3-ylcarbamoyl)-5-(3-fluorophenyl)thiophen-2-yl)urea]: 5.25; for `NC(=O)Nc1sc(-c2ccc(F)cc2)cc1C(=O)N[C@H]1CCCNC1` [(S)-1-(5-(4-fluorophenyl)-3-(piperidin-3-ylcarbamoyl)thiophen-2-yl)urea]: 5.48.

`CS(=O)(=O)c1ccc(-c2cc(C(=O)N[C@H]3CCCNC3)c(NC(N)=O)s2)cc1` [(S)-1-(5-(4-(methylsulfonyl)phenyl)-3-(piperidin-3-ylcarbamoyl)thiophen-2-yl)urea] had a pIC50 of 5.66. Next, `Cc1ccc(-c2cc(C(=O)N[C@H]3CCCNC3)c(NC(N)=O)s2)cc1` [(S)-1-(3-(piperidin-3-ylcarbamoyl)-5-p-tolylthiophen-2-yl)urea]: 5.26. For `CCN(CC)CCOc1ccc(-c2cc(C(=O)Nc3cccnc3)c(NC(N)=O)s2)cc1` [1-(5-(4-(2-(diethylamino)ethoxy)phenyl)-3-(pyridin-3-ylcarbamoyl)thiophen-2-yl)urea], the pIC50 is 4.36. Compared with the last molecule, the pIC50 is 0.90 log units lower. For `NC(=O)Nc1sc(-c2ccc(C(=O)N3CCCCC3)cc2)cc1C(=O)N[C@H]1CCCNC1` [(S)-1-(3-(piperidin-3-ylcarbamoyl)-5-(4-(piperidine-1-carbonyl)phenyl)thiophen-2-yl)urea], the pIC50 is 4.97. Regarding `NC(=O)Nc1sc(-c2ccncc2)cc1C(=O)N[C@H]1CCCNC1` [(S)-1-(3-(piperidin-3-ylcarbamoyl)-5-(pyridin-4-yl)thiophen-2-yl)urea], the pIC50 is 5.74.

`CN(C)c1ccc(-c2cc(C(=O)N[C@H]3CCCNC3)c(NC(N)=O)s2)cc1` [(S)-1-(5-(4-(dimethylamino)phenyl)-3-(piperidin-3-ylcarbamoyl)thiophen-2-yl)urea] showed a pIC50 of 5.08. Turning to `CN(C)C(=O)c1ccc(-c2cc(C(=O)N[C@H]3CCCNC3)c(NC(N)=O)s2)cc1` [(S)-1-(5-(4-(dimethylcarbamoyl)phenyl)-3-(piperidin-3-ylcarbamoyl)thiophen-2-yl)urea], the pIC50 was 5.43.
